Data reported in PubChem BioAssay AID2060505 (Molecular Pharmacology Branch, DTP, NCI, 2025).
“And” between values parts separate entries of the source, which are not always exact repeats. Equal entries are not always repeated.

Test system: 633275-114-R-J1-PDC complex spheroids, viability
Assay: Anticancer human tumor 633275-114-R-J1-PDC patient-derived endometrial adenocarcinoma cell line growth inhibition [GQUAD]
Settings: for viability, T/C: stronger effect = lower value
Text: DNA G-quadruplex Stabilizer Agents in Combinations in Complex Spheroids
A high-throughput screen of multi-cell type tumor spheroids was designed to identify active combinations of DNA G-quadruplex stabilizer agents and targeted small molecules. Complex spheroids include a stromal component modeled by human endothelial cells (HUVEC) and fibroblasts modeled by human mesenchymal stem cells (MSCs). The concentration ranges selected for each drug and investigational agent were based upon clinically achievable concentrations if the clinical Cmax of the agent was known.
Compounds. The drugs and investigational agents: pidnarulex (CX-5461; NSC782164), APTO-253 (NSC789042), BRACO-19 (NSC847499), peposertib (NSC802822), ceralasertib (NSC780249), elimusertib (NSC800525), camonsertib (NSC841442), AZD-1390 (NSC803789), olaparib (NSC753686), talazoparib (NSC767125), ART-558 (NSC835418), sotorasib (NSC818433), MRTX-1133 (NSC836407), SN-38 (NSC673596), topotecan (NSC609699), etoposide (NSC141540), doxorubicin (NSC123127), gemcitabine (NSC613327), 5-fluorouracil (NSC19893), paclitaxel (NSC125973), vemurafenib (NSC761431), panobinostat (NSC761190), R-306465 (JNJ-16241199; NSC773264), adavosertib (NSC754352), TP-3654 (NSC805149), carboplatin (NSC241240), KSQ-4279 (NSC840948), and staurosporine (NSC755774) were obtained from the National Cancer Institute (NCI) Developmental Therapeutics Program Chemical Repository (34). The FDA-approved anticancer drug set is available from the NCI Developmental Therapeutics Program. […] The stock solutions were prepared in dimethyl sulfoxide (DMSO, Sigma-Aldrich, St. Louis, MO, cat. D2650) at 800-fold the tested concentration and stored at -70 degrees C prior to their use. All drugs and investigational agents were tested over a range starting from a high concentration at or near the clinical Cmax and decreasing in half-log increments. If the clinical Cmax for an agent had not been determined, the highest concentration tested was 10 microM.
2.3 Cell Culture. All cells were maintained in an incubator at 37 degrees C and 5% CO2 with 95% humidity. The PDC lines were cultured according to standard operating procedures established by the NCI PDMR. All PDCs were thawed and cultured in Matrigel-coated flasks prepared with a working solution of 1X Ham's F-12 nutrient mix, without supplementation (Invitrogen, cat. 11765054), 100 U/mL penicillin-streptomycin (Invitrogen, cat. 15140122), and 2.5% Matrigel (Corning Inc., cat. 354248) for the first three passages. The 857933-349-R-J2-PDC line was cultured in 6C/Colon 1B media, which includes advanced DMEM/F-12 (Thermo Fisher Scientific, cat. 12634028), 10 mM HEPES (Thermo Fisher Scientific, cat. 15630080), 1X GlutaMAX supplement (Thermo Fisher Scientific, cat. 35050061), 0.1 mg/mL primocin (InvivoGen, cat. ant-pm-2), 10% defined fetal bovine serum, heat inactivated (HyClone Laboratories Inc., cat. SH30070.03HI), 50% L-WRN conditioned media (ATCC, cat. CRL-3276), 1.25 mM N-Acetyl-L-cysteine (Sigma-Aldrich, cat. A9165), 10 mM nicotinamide (Sigma-Aldrich, cat. N0636), 1X B-27 supplement (Thermo Fisher Scientific, cat. 17504044), 1X N-2 supplement (Thermo Fisher Scientific, cat. 17502048), 10 microM Y-27632 dihydrochloride (Tocris Bioscience, cat. 1254), and 50 ng/mL human EGF recombinant protein (Thermo Fisher Scientific, cat. PHG0311). The 485176-168-R4-J1-PDC line was cultured in Panc media, which includes all 6C/Colon 1B media components plus 100 ng/mL human FGF-10 (Thermo Fisher Scientific, cat. 100-26), 500 nM SB-431542 (Selleckchem, cat. S1067), and gastrin (Tocris, cat. 3006).
[…]
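Further: spheroids exposed to the agents for seven days.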
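Wherever viability, T/C is given: percent of DMSO vehicle control viability which is 100%.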

With `Cc1cnc(CNC(=O)c2c(=O)c3ccc(N4CCCN(C)CC4)nc3n3c2sc2ccccc23)cn1` the viability, T/C (compound 0.0316 µM) was 66.5% [middle of 12 runs], the viability, T/C (compound 0.1 µM) was 51.1% [middle of 12 runs] and the viability, T/C (compound 0.316 µM) was 46.2% [middle of 11 runs]. For the same compound, the viability, T/C (compound 1 µM) was 41.8% [middle of 12 runs], the viability, T/C (compound 3.16 µM) was 39% [middle of 12 runs] and the viability, T/C (compound 10 µM) was 33.2% [middle of 12 runs]. The IC50 (compound alone, run of 03/18/2024) was 187 nM [middle of 12 runs].

`CC(C)(O)C1CCC(Nc2ccc3ncc(-c4cccc(C(F)(F)F)c4)n3n2)CC1` (stereo not given) was tested, and the viability, T/C (compound 0.0316 µM) was 103% and 106% (2×), the viability, T/C (compound 0.1 µM) was 94.8% and 101% and 89.9% and the viability, T/C (compound 0.316 µM) was 95.2% and 87.9% and 105%. For the same compound, the viability, T/C (compound 1 µM) was 68.7% and 71.4% and 61.6%, the viability, T/C (compound 3.16 µM) was 29.8% and 33.2% and 29.4% and the viability, T/C (compound 10 µM) was 35% and 33.7% and 39.8%. The IC50 (curve of compound) was 1810 nM and 2010 nM and 1640 nM.

`O=C(c1cc(Cc2n[nH]c(=O)c3ccccc23)ccc1F)N1CCN(C(=O)C2CC2)CC1` was tested, and the viability, T/C (compound 0.0316 µM) was 101% and 96.1% and 100%, the viability, T/C (compound 0.1 µM) was 94.1% and 84.6% and 94% and the viability, T/C (compound 0.316 µM) was 86.2% and 95.4% and 96.1%. For the same compound, the viability, T/C (compound 1 µM) was 85.2% and 91.4% and 78.4%, the viability, T/C (compound 3.16 µM) was 74.8% and 71.8% and 75.2% and the viability, T/C (compound 10 µM) was 58.2% and 52.5% and 61.2%. For the same compound, the IC50 (curve of compound) was over 10000 nM.

For `COc1ncnc(C2CC2)c1-c1ncc2cnn(Cc3ccc(-c4nc(C(F)(F)F)cn4C(C)C)cc3)c2n1`, the viability, T/C (compound 0.0316 µM) was 91.5% and 91.7% and 98.3%, the viability, T/C (compound 0.1 µM) was 95.1% and 89.5% and 100% and the viability, T/C (compound 0.316 µM) was 86.6% and 85.3% and 100%. The viability, T/C (compound 1 µM) was 90.3% and 101% and 82.7%, the viability, T/C (compound 3.16 µM) was 98% and 106% and 95.6% and the viability, T/C (compound 10 µM) was 85% and 87.1% and 84.9%. The IC50 (curve of compound) was over 10000 nM.

`CC(C)n1c(=O)n(C)c2cnc3cc(F)c(-c4ccc(OCCCN5CCCCC5)nc4)cc3c21` + Cc1cnc(CNC(=O)c2c(=O)c3ccc(N4CCCN(C)CC4)nc3n3c2sc2ccccc23)cn1 showed an IC50 (curve of first compound, second compound 0.0316 µM) of over 10000 nM, an IC50 (curve of first compound, second compound 0.1 µM) of under 31.6 nM and an IC50 (curve of first compound, second compound 0.316 µM) of under 31.6 nM. The IC50 (curve of first compound, second compound 1 µM) was under 31.6 nM, the IC50 (curve of first compound, second compound 3.16 µM) was under 31.6 nM and the IC50 (curve of first compound, second compound 10 µM) was under 31.6 nM. The viability, T/C (second compound 0.0316 µM, first compound 0.0316 µM) was 58%, the viability, T/C (second compound 0.0316 µM, first compound 0.1 µM) was 58.5% and the viability, T/C (second compound 0.0316 µM, first compound 0.316 µM) was 52.9%. It also gave a viability, T/C (second compound 0.0316 µM, first compound 1 µM) of 52.9%, a viability, T/C (second compound 0.0316 µM, first compound 3.16 µM) of 56.4% and a viability, T/C (second compound 0.0316 µM, first compound 10 µM) of 54%. The viability, T/C (second compound 0.1 µM, first compound 0.0316 µM) was 44.2%, the viability, T/C (second compound 0.1 µM, first compound 0.1 µM) was 45.1% and the viability, T/C (second compound 0.1 µM, first compound 0.316 µM) was 42.9%. It also gave a viability, T/C (second compound 0.1 µM, first compound 1 µM) of 42.2%, a viability, T/C (second compound 0.1 µM, first compound 3.16 µM) of 49.5% and a viability, T/C (second compound 0.1 µM, first compound 10 µM) of 47.2%. It also gave a viability, T/C (second compound 0.316 µM, first compound 0.0316 µM) of 46.6%, a viability, T/C (second compound 0.316 µM, first compound 0.1 µM) of 42.1% and a viability, T/C (second compound 0.316 µM, first compound 0.316 µM) of 40.9%. The viability, T/C (second compound 0.316 µM, first compound 1 µM) was 41.6%, the viability, T/C (second compound 0.316 µM, first compound 3.16 µM) was 46.4% and the viability, T/C (second compound 0.316 µM, first compound 10 µM) was 39.4%. It also gave a viability, T/C (second compound 1 µM, first compound 0.0316 µM) of 42.7%, a viability, T/C (second compound 1 µM, first compound 0.1 µM) of 37.1% and a viability, T/C (second compound 1 µM, first compound 0.316 µM) of 37.1%. For the same compound, the viability, T/C (second compound 1 µM, first compound 1 µM) was 43.5%, the viability, T/C (second compound 1 µM, first compound 3.16 µM) was 39.2% and the viability, T/C (second compound 1 µM, first compound 10 µM) was 33.6%. For the same compound, the viability, T/C (second compound 3.16 µM, first compound 0.0316 µM) was 32.2%, the viability, T/C (second compound 3.16 µM, first compound 0.1 µM) was 34.5% and the viability, T/C (second compound 3.16 µM, first compound 0.316 µM) was 33.8%. It also gave a viability, T/C (second compound 3.16 µM, first compound 1 µM) of 32.3%, a viability, T/C (second compound 3.16 µM, first compound 3.16 µM) of 33.9% and a viability, T/C (second compound 3.16 µM, first compound 10 µM) of 25.2%. For the same compound, the viability, T/C (second compound 10 µM, first compound 0.0316 µM) was 31.3%, the viability, T/C (second compound 10 µM, first compound 0.1 µM) was 32% and the viability, T/C (second compound 10 µM, first compound 0.316 µM) was 32.2%. The viability, T/C (second compound 10 µM, first compound 1 µM) was 29.1%, the viability, T/C (second compound 10 µM, first compound 3.16 µM) was 31.4% and the viability, T/C (second compound 10 µM, first compound 10 µM) was 9.52%.
